Each structure is given as a SMILES string.

Regarding `CC(C)(C)c1cc(C(=O)c2ccsc2)cc2c1OCC2(C)C`, the melting point fell in the range of 89 to 90 °C.
Turning to `O=C1c2ccc(OCCO)cc2C(=O)c2cc3ccccc3cc21`, the melting point was found to be 209 °C.
`CCCOc1cc(F)cc2c1c(CCN(C)C)cn2CC` showed a melting point of 68.9 to 70.1 °C.
On to `CCOC(=O)C(=Cc1ccc(-c2ccc(Cl)cc2)o1)C(=O)OCC`, for which the melting point was 78 to 80 °C.
Regarding `CCCCCCCc1cnc(-c2ccc(OC(=O)c3cc(N)c(O[C@H](C)CCCCCC)cc3[N+](=O)[O-])cc2)nc1`, the melting point came to 105 °C.
With `CCNC(=O)n1nc(Oc2c(F)cc(C(F)(F)F)cc2Cl)cc1C` the figure was 58 to 60 °C; with `CNC(=S)NCCCSc1nnnn1C`, 99 to 101 °C.
As to `CCCN(CC)c1cc(C)nc(Oc2c(C)cc(Cl)cc2C)c1C`, the melting point fell in the range of 74 to 76 °C.
In the case of `O=C1Cc2c(Cl)cccc2Sc2ccc(C(F)(F)F)cc21` it was 105 to 108 °C.
With `O[C@H]1CC[C@@H](Nc2ncc3ncnc(Nc4ccc(F)c(Cl)c4)c3n2)CC1` the figure was 270 to 275 °C; with `COc1cc(OC)n2nc(NS(=O)(=O)c3c(Cl)cccc3Cl)nc2n1`, 211 to 213 °C.
`CC(C)(C)c1cccc(S(=O)(=O)n2c(Cc3cccc(C(=O)O)c3)cc3cc(C(F)(F)F)ccc32)c1`: the melting point came out at 146 °C.
With `NS(=O)(=O)c1cccc(-c2cn(-c3nc(-c4ccc(Cl)c(Cl)c4)cc(C(F)(F)F)n3)cn2)c1` the figure was 239 °C.
Turning to `O=C1CC(C(=O)C(F)(F)F)Cc2ccccc21` (centres undefined), the melting point lay in the range of 48 to 49 °C.
With `Cc1cc(C)c2c(=O)n(CC(=O)N3CCNCC3)sc2n1` the figure was 175 to 177 °C; with `COc1ccc(N2Cc3cnc(Nc4ccccc4)nc3N([C@@H](C)CO)C2=O)c(F)c1`, 188 to 198 °C.
`O=C1CC2(CCCC2)c2ccc(O)cc21` displayed a melting point of 145 °C.
With `CN1CCN(c2nc3sc4c(NCc5cccnc5)ncnc4c3c3c2COC(C)(C)C3)CC1` the figure was 251 to 252 °C; with `CCCN(CCC)CCCCNC(=O)c1cnc2cc(I)ccc2n1`, 74 to 76 °C.
In turn, `FC(F)(F)CNC(=S)NCc1ccc(C(F)(F)F)cc1` displayed a melting point of 80 to 82 °C.
With `CCOCNC(=O)c1cc(OC)cc(Oc2cccc(C(F)(F)F)c2)n1` the figure was 44 to 47 °C; with `CSc1ccc(-c2cc3ncn([C@H](C)[C@](O)(Cn4cncn4)c4ccc(F)cc4F)c(=O)c3s2)cc1`, 223 to 224 °C; with `O=Cc1cccc2c1[nH]c1c3cc(Br)ccc3oc21`, 280 to 281 °C.
The compound `CC(C)(C)C1=NN(c2ccc(C(=O)O)cc2)C(c2ccc(Cl)c(Cl)c2)C1` (centres undefined) came in with a melting point of 217 °C.
In the case of `O=C1OC(Cl)(c2ccc(Cl)cc2Cl)c2ccccc21` (centres undefined), the melting point is 148 to 149 °C.
In the case of `O=C1C=CC(=O)N1c1ccc(Cl)cc1` it was 109 to 110 °C; in that of `Cc1ccc(NC(=O)c2ccccc2SSc2ccccc2C(=O)Nc2ccc(C)c(C)c2)cc1C`, 224 to 227 °C.
With `Cc1ccc(S(=O)(=O)N2CCCC2c2ccccc2Cl)cc1` (racemic) the figure was 149 °C.
With `Cc1nc(-c2cc3cc(OCCNC[C@H](O)c4cccc(Cl)c4)ccc3o2)no1` the figure was 88 to 92 °C; with `Cn1c(C(F)(F)F)ccc(-c2cc([N+](=O)[O-])c(Cl)cc2F)c1=O`, 139 to 140 °C.
Turning to `Cc1c(-c2ccccc2)[nH]c2ccc(Br)cc12`, the melting point lay within 138 to 140 °C.
With `c1ccc(-c2ccc(-c3csc(Nc4cc5ccccc5cn4)n3)s2)nc1` the figure was 246 to 248 °C; with `O=C1NC(=O)c2c1c(-c1ccccc1Cl)cc1c2c(Cl)c(CO)n1CCCO`, 218 to 219 °C.
In the case of `COc1cc2cc(-c3ccc(OCC(O)CNC(C)C)cc3)n(C)c(=O)c2cc1OC` (centres undefined) it was 206 to 207 °C; in that of `CCOC(=O)CCCC(=O)c1ccc(O)c(CCC(=O)OCC)c1`, 68 to 69 °C; in that of `CC(=O)N1CCC(c2cc(F)c(C(=O)O)cc2F)CC1`, 206 to 207 °C.
In the case of `COc1ccc2c(Oc3ccc(OCCN4CCCCC4)cc3)c(-c3cccc(O)c3)ccc2c1` it was 170 to 171 °C.
`CC(C)OC(=O)N1CCC(c2nc3cc(-c4ccc(C(N)=O)cc4F)ccc3o2)CC1` returned a melting point of 194 to 197 °C.
The compound `CC(=NO)C1(c2ccc(Cl)c(Cl)c2)CCC1` came in with a melting point of 120 to 121 °C.
With `c1snc2c1Sc1csnc1S2` the figure was 190 to 191 °C; with `CCOC(=O)NC(CCSC)C(N)=O` (racemic), 110 to 112 °C; with `CN1CCC(c2[nH]c(=O)c3ccccc3c2-c2ccccc2)CC1`, 258 to 260 °C.
In turn, `O=C(O)Cc1ccc(C2CC(=O)c3ccccc32)cc1` (centres undefined) came in with a melting point of 151 °C.
`O=C(O)CCc1ccc2ccccc2c1Br` came in with a melting point of 116 to 119 °C.
With `Cc1cc2nc3ccccc3sc-2c(Br)c1=O` the figure was 190 °C; with `O=C(O)c1ccc2c(c1)NCc1ccccc1O2`, 251 to 252 °C; with `CC(C)(C)c1cc(C(CCc2ccccc2)NCP(=O)(O)O)cc(C(C)(C)C)c1O` (centres undefined), 162 to 169 °C.
In the case of `CCCC1(CCC)c2ccccc2-c2cc(NC(=O)c3cc4oc5ccccc5c4cc3OC)c(O)cc21` it was 252 to 255 °C; in that of `CCOc1ccc(C(=O)c2ccccc2F)c(Cl)c1Cl`, 94 to 95 °C; in that of `CC(OCc1ccc2ccccc2c1)(C(=O)Cl)C(F)(F)F` (centres undefined), 39 to 43 °C.
Regarding `CCOC(=O)C1=C(C)NC(N=CCN(C)C)=C(C(=O)OCC)C1c1cccc([N+](=O)[O-])c1` (centres undefined), the melting point was determined as 172 °C.
With `CCOC(=O)Nc1ccc(C23CC4CC(CC(C4)C2)C3)cc1` the figure was 132 to 134 °C; with `Cc1nn(C)c2c(Nc3ccc(S(C)(=O)=O)cc3)nc(-c3ccc(F)cc3)nc12`, 216 to 218 °C; with `COc1cc2c(CC(=O)O)c(C)n(C(=O)c3ccc(Cl)s3)c2cc1F`, 169 °C.
In the case of `COc1ccc(CCN2CCC(C(O)c3ccc(NS(C)(=O)=O)cc3)CC2)cc1` (centres undefined) it was 40 to 48 °C; in that of `CSc1nc2cc3c(cc2[nH]1)NC(=O)C3(C)C`, 248 to 250 °C.
In the case of `O=C(O)c1cc(=O)c2cc(OC(F)(F)F)ccc2o1` it was 192 to 194 °C; in that of `Cn1cc(OS(C)(=O)=O)c(=O)c2ccc(C#N)cc21`, 268 °C.
As to `CC(=O)OC1CC=C(CCCCCCC(=O)O)C1=O` (centres undefined), the melting point lay in the range of 62 to 65 °C.
With `NC(=O)c1cc(OCCCN2CCN(c3cccc4sccc34)CC2)c2ccccc2n1` the figure was 153 to 154 °C.
As to `O=C(c1ccccc1)c1cc2c(cc1O)C(CO)(C(=O)O)CC2` (centres undefined), the melting point is 104 to 110 °C.
The compound `COc1ccc(-c2ccc(C(=O)Nc3cc4ncc(CN5CCCCCC5)cc4cc3C)c(F)c2)cc1` displayed a melting point of 168 °C.
In the case of `Cc1c(Cl)n(C2OC(CO)C(O)C2O)c2cc(Cl)c(Cl)cc12` (centres undefined) it was 190 to 191 °C; in that of `CCCCCCC(=O)CC(C)=O`, 105 to 106 °C.

The values above are taken from a melting point compilation (Tetko et al.; mined from patent text by program, amines drawn as free bases though some values may be those of a salt).
